Source: patent US20140350273A1, “PEDIATRIC USES OF CABAZITAXEL” (AVENTIS PHARMA S.A., priority 2012, published 2014)
Like-named read-outs stand apart in the source and are kept apart here.

Test system: human Ewing's sarcoma DM101
Assay type: in vivo
Conditions: for Tumor Volume Data (Day 11) Median / ΔT/ΔC %: day 11; for MTTE / T-C: volume endpoint 2000 mm^3; for tumor volume changes from baseline, Median +/− MAD: nude mice bearing DM101 Ewing's sarcoma
Experimental: The resultant solution contains 10 mg/mL of cabazitaxel. Stock solution of cabazitaxel was then diluted in 0.9% sodium chloride.
This efficacy may be quantified, for example, as changes in tumor volume for each treated (T) and control (C) group, which are calculated for each animal and each day by subtracting the tumor volume on the day of first treatment (staging day) from the tumor volume on the specified observation day. This allows calculating the tumor growth inhibition: ΔT/ΔC=(median delta T/median delta C)×100. Individual tumor volume changes from baseline are thereafter analyzed by a non-parametric two-way ANOVA-TYPE (with factors: group and repeated days) followed by a post-hoc contrasts analysis, with Bonferroni-Holm adjustment for multiplicity, comparing all treated groups to the control group. […] A probability less than 5% (p<0.05) was considered as significant.
Based on the National Cancer Institute (NCl) standards, a ΔT/ΔC≦40% is the minimal level required to declare activity.
This efficacy may also be quantified by the number of tumor regressions observed after therapy. Individual mice reporting a tumor volume ≦50% of the Day 0 measurement for two consecutive measurements over a seven day period were considered partial responders (PR). Individual mice lacking palpable tumors (<4×4 mm^2 for two consecutive measurements over a seven day period) were classified as complete responders (CR); a CR that persisted until study completion was considered a tumor-free survivor (TFS).
Efficacy could also be determined at study completion, using tumor growth delay (T-C) in days, which is calculated using the median time to endpoint (MTTE) value for each treatment (T) group versus control (C). A Log Rank multiple comparison test with Bonferroni-Holm adjustment for multiplicity was applied on individual TTE to compare the treated groups to the control group.
The animals subjected to the experiment are subcutaneously grafted unilaterally with approximately 30 mg of a tumor fragment from low passage pediatric patient-derived tumor xenografts. The animals are implanted with a human patient-derived pediatric tumor xenografted in immuno-compromised mice (Harlan; nu/nu). Several days post tumor implantation, mice are randomized according to their tumor burden to the different groups of treatments and controls. The agents are dosed intravenously at 5.8, 9.3, 15 or 24.2 mg/kg every 4 days for a total of 3 doses (q4d×3) to mice bearing a tumor burden at start of therapy (day 0) ranged from 125 to 250 mm^3.
Beginning Day 0, animals were observed daily and weighed twice weekly using a digital scale; data including individual and mean gram weights (Mean We±SD), mean percent weight change versus Day 0 were recorded for each group. Animal deaths were recorded daily and designated as drug-related (D), technical (T), tumor related (B), or unknown (U) based on weight loss and gross observation; single agent or combination groups reporting a mean >20% for a period of 7 days and/or >10% mortality were considered above the maximum tolerated dose (MTD) for that treatment on the evaluated regimen.
The selected tumor model, DM101, was a low passage patient-derived tumor xenograft derived from an Ewing's sarcoma taken from the bone of a patient.
The following end points were used: • Toxicity was declared at dosages inducing ≧20% body weight loss or ≧10% drug death; • Antitumor efficacy was determined by calculating the ΔT/ΔC value in percent on day 11 post treatment initiation, according to the above mentioned formula; • Individual tumor volume changes from baseline were analyzed by a non-parametric two-way ANOVA-TYPE (with factors: group and repeated day from 4 to 14) followed by a post-hoc contrasts analysis, with Bonferroni-Holm adjustment for multiplicity, comparing all treated groups to the control group on day 11. […] The volume endpoint for T-C calculations was chosen to be 2000 mm^3.

## CO[C@H]1C(=O)[C@]2(C)[C@@H](OC)C[C@H]3OC[C@@]3(OC(C)=O)[C@H]2[C@H](OC(=O)c2ccccc2)[C@]2(O)C[C@H](OC(=O)[C@H](O)[C@@H](NC(=O)OC(C)(C)C)c3ccccc3)C(C)=C1C2(C)C [Cabazitaxel, 4α-acetoxy-2α-benzoyloxy-5β,20-epoxy-1β-hydroxy-7β,10β-dimethoxy-9-oxo-11-taxen-13α-yl (2R,3S)-3-tert-butoxycarbonyl-amino-2-hydroxy-3-phenylpropionate]
5.8 mg/kg i.v./q4d × 3
  #CR: 0/0/0
  #PR: 0/0/0
  #TFS: 0/0/0
  Drug Deaths Total: 0
  Tumor Volume Data (Day 11) Median: 204 mm^3
  ΔT/ΔC %: 8.9%
  MTTE: 34.8 days
  T-C: 17.9 days
5.8 mg/kg, DAY 4
  tumor volume changes from baseline, Median +/− MAD: 0 +/− 0 (n = 9)
5.8 mg/kg, DAY 7
  tumor volume changes from baseline, Median +/− MAD: 34 +/− 34
5.8 mg/kg, DAY 11
  tumor volume changes from baseline, Median +/− MAD: 73 +/− 73
5.8 mg/kg, DAY 14
  tumor volume changes from baseline, Median +/− MAD: 155 +/− 136
5.8 mg/kg, DAY 17
  tumor volume changes from baseline, Median +/− MAD: 306 +/− 152
5.8 mg/kg, DAY 20
  tumor volume changes from baseline, Median +/− MAD: 489 +/− 199
5.8 mg/kg, DAY 25
  tumor volume changes from baseline, Median +/− MAD: 696.5
5.8 mg/kg, DAY 28
  tumor volume changes from baseline, Median +/− MAD: 1097 +/− 117
5.8 mg/kg, DAY 32
  tumor volume changes from baseline, Median +/− MAD: 1396
9.3 mg/kg i.v./q4d × 3
  #CR: 1/1/1
  #PR: 1/1/1
  #TFS: 1/1/1
  Drug Deaths Total: 0
  Weight Nadir %: −2%
  Weight Nadir Day: 7
  Tumor Volume Data (Day 11) Median: 255 mm^3
  ΔT/ΔC %: 9.4%
  MTTE: 23.9 days
  T-C: 7 days
9.3 mg/kg, DAY 4
  tumor volume changes from baseline, Median +/− MAD: 0 +/− 33
9.3 mg/kg, DAY 7
  tumor volume changes from baseline, Median +/− MAD: 13 +/− 41
9.3 mg/kg, DAY 11
  tumor volume changes from baseline, Median +/− MAD: 77 +/− 118
9.3 mg/kg, DAY 14
  tumor volume changes from baseline, Median +/− MAD: 188 +/− 241
9.3 mg/kg, DAY 17
  tumor volume changes from baseline, Median +/− MAD: 498 +/− 485
9.3 mg/kg, DAY 20
  tumor volume changes from baseline, Median +/− MAD: 766 +/− 713
9.3 mg/kg, DAY 25
  tumor volume changes from baseline, Median +/− MAD: 1095
9.3 mg/kg, DAY 28
  tumor volume changes from baseline, Median +/− MAD: 182.5 +/− 248
9.3 mg/kg, DAY 32
  tumor volume changes from baseline, Median +/− MAD: 385 +/− 414
15 mg/kg i.v./q4d × 3
  #CR: 9
  #PR: 9
  #TFS: 7
  Drug Deaths Total: 0
  Weight Nadir %: −3%
  Weight Nadir Day: 7
  Tumor Volume Data (Day 11) Median: 0 mm^3
  ΔT/ΔC %: −16%
  MTTE: >61 days
  T-C: >44.1 days
15 mg/kg q4d×3 IV
  CR: 9/9
  TFS: 7/9
15 mg/kg, DAY 4
  tumor volume changes from baseline, Median +/− MAD: 0 +/− 0 (n = 9)
15 mg/kg, DAY 7
  tumor volume changes from baseline, Median +/− MAD: −113 +/− 32
15 mg/kg, DAY 11
  tumor volume changes from baseline, Median +/− MAD: −131 +/− 47
15 mg/kg, DAY 14
  tumor volume changes from baseline, Median +/− MAD: −131 +/− 47
15 mg/kg, DAY 17
  tumor volume changes from baseline, Median +/− MAD: −131 +/− 47
15 mg/kg, DAY 20
  tumor volume changes from baseline, Median +/− MAD: −131 +/− 47
15 mg/kg, DAY 25
  tumor volume changes from baseline, Median +/− MAD: −131 +/− 47
15 mg/kg, DAY 28
  tumor volume changes from baseline, Median +/− MAD: −131 +/− 47
15 mg/kg, DAY 32
  tumor volume changes from baseline, Median +/− MAD: −131 +/− 40
24.2 mg/kg i.v./q4d × 3
  #CR: 9
  #PR: 9
  #TFS: 8
  Drug Deaths Total: 0
  Weight Nadir %: −5%
  Weight Nadir Day: 11
  Tumor Volume Data (Day 11) Median: 0 mm^3
  ΔT/ΔC %: −18.3%
  MTTE: >61 days
  T-C: >44.1 days
24.2 mg/kg q4d×3 IV
  CR: 9/9
  TFS: 8/9
24.2 mg/kg, DAY 4
  tumor volume changes from baseline, Median +/− MAD: −19 +/− 19
24.2 mg/kg, DAY 7
  tumor volume changes from baseline, Median +/− MAD: −150 +/− 52
24.2 mg/kg, DAY 11
  tumor volume changes from baseline, Median +/− MAD: −150 +/− 38
24.2 mg/kg, DAY 14
  tumor volume changes from baseline, Median +/− MAD: −150 +/− 38
24.2 mg/kg, DAY 17
  tumor volume changes from baseline, Median +/− MAD: −150 +/− 38
24.2 mg/kg, DAY 20
  tumor volume changes from baseline, Median +/− MAD: −150 +/− 38
24.2 mg/kg, DAY 25
  tumor volume changes from baseline, Median +/− MAD: −150 +/− 38
24.2 mg/kg, DAY 28
  tumor volume changes from baseline, Median +/− MAD: −150 +/− 38
24.2 mg/kg, DAY 32
  tumor volume changes from baseline, Median +/− MAD: −150 +/− 38
Conclusion of example 6, 15 or 24.2 mg/kg, same or equi-toxic dose
  antitumor activity compared with docetaxel: significantly more active than docetaxel
